# Several values for one entry are separate records, joined by “and”; a condition that tells them apart may be missing. Equal entries are not always repeated. Where two headings read alike, the source gives them in different places. Marks after values point to notes of the source that are not given here.
# Columns and labels:
# NOS system = test: Residual nitrite in test tube pork loin sausages (Example 11)
# Source text: Pork loins from a local meat distributor were procured on Mar. 18, 2019 and tested four weeks later on Apr. 18, 2019. A total of nine pounds of pork loins were split into thirds and ground through kidney, ½″, and ¼″ plates to make a restructured ham sausages formulated (Table 14) to contain either 1000 or 5000 ppm L-arginine which were stuffed in 2″ plastic casings and thermally processed. Three pounds of each grind size (9 pound batch) were mixed with high (5000 ppm), low (1000 ppm), or control (0 ppm) concentrations of brine at 25% addition using a Kitchen aid mixer. It was decided to lower the concentration of the L-arginine from 1500 ppm (Test 3) to 1000 ppm (Test 4) to verify that this concentration can generate acceptable levels of NO to develop cured color and residual nitrite for antioxidant and antimicrobial properties. Control and treatment met batches were stuffed in plastic casings in triplicate for each high, low, and control concentrations in one pound portions. […] The samples were tested for residual nitrite and nitroso-hemochromagen pigment (Table 14) one day after thermal processing cooking (April 19th to April 20th), then eight days after thermal processing on April 26th to determine any cure color fading and residual nitrite.
# eNOS system [1] = tested on: eNOS system
# Experimental: Two (N=2) of these pork loins were cut into four sections (˜1 kg; 8 pieces total) and weighed prior to injection with the test brine solution (Table 8). Initial muscle pH was prior to injection before injection (10, 15, 20 or 25%) as well as brine pH was measured (Table 9). The test brine was manufactured for a targeted 25% injection level (Table 8) and was prepared on the day of manufacture to simulate a commercial ham cure containing water, sodium tri-polyphosphate, salt (NaCl), L-arginine, sodium erythorbate (NaE) and sugar. […] Brine percentages were calculated to simulate ingoing arginine of test tube trials (5569 ingoing arginine, 547 ppm NaE, 0.9% NaCl).
# Samples were weighed before and after injection to ensure pickup percentage as close to the target weights of 10, 15, 20, and 25% pickup. Samples were vacuum packaged and held for two hours before thermal processing to simulate previous laboratory test tube trials.
# After cooking and stabilization at room temperature, loin sections were sliced perpendicular to the long axis of the muscle fibers to determine if any nitrosylation (nitric oxide (NO) bound to myoglobin) occurred, resulting in the characteristic cured (pink) color. […] Based on an ingoing L-arginine brine concentration of 5545 ppm, there would be approximately 554, 830 and 1110 and 1385 ppm of ingoing L-arginine at 10, 15, 20 and 25% injection levels, respectively.
# eNOS system [2] = test: Whole muscle injection or immersion of pork loin/tenderloin with L-arginine test brine without phosphate (Example 9): pH and cured color
# Experimental: Two (N=2) pork loins were procured from the same batch previously described (Mar. 18, 2019 pack date). […] Initial muscle pH was prior to and after injection/immersion and the brine pH was measured as well (Table 11). […] No sodium tri-polyphosphate was added to the brine, only water, salt, arginine, and sodium erythorbate in the same concentration/percentage used for prior benchtop laboratory tests. […] Phosphate was eliminated from the test brine to decrease pH to increase the likelihood of the L-arginine activating the eNOS system found within the meat.
# Four (N=4) tenderloins fabricated from four pork loins (Mar. 18, 2019 pack date) were subjected to immersion curing by placing them into the remaining (leftover) test brine (no injection) for approximately 18 hr. were immersed in the remaining brine to simulate previous test tube trials.
# After thermal processing, each sample was sliced to determine if any nitrosylation or cure color formation occurred. […] Even though phosphate was not included in the formulation the brine pH was still high. […] It appears that the concentration of L-arginine and the high brine pH may not be at the right amount/level to achieve the desired cured meat reaction. Based on these product failures, it was decided to go back to use the original protocol used in laboratory testing—but use a waterproof sausage casings to create a “pilot plant tube” to make sure the results seen in the laboratory could be replicated in a pilot plant setting.
# [3] = tested on: Nitric Oxide Synthase (NOS) system; test: Residual nitrite in plastic casing test tube ground pork loin sausages (Example 10); conditions: for Nitrite Pellet / Nitrite Supernatant: cooked
# Experimental: The desired cured color could not initially be generated in a variety of processed meat products in a pilot plant setting. […] Pork loins (N=2) procured from a local meat distributor (Mar. 18, 2019) were used. Eight pounds of pork loins were ground (½″ then ¼″ plate) and weighed out in one pound portions. Plastic waterproof casings (2″ diameter) were clipped at one end. One pound of ground pork loin was placed in the casing and two pounds of brine (L-arginine concentration 7498 ppm) were added and the open end of the casing clipped. Based on laboratory test tube studies, meat samples would absorb 20-25% of the solution which equates to absorption of approximately 1500 ppm of L-arginine. Each plastic casing contained the same proportion of meat and brine as conducted during previous laboratory experiments (Table 12). A control was manufactured by substituting distilled water for the L-arginine brine.
# After thermal processing the plastic casing test tubes were cut open and emptied into beakers, then separated into residue (meat particles) and supernatant (liquid) via paper filtration into 50 mL conical tubes for collection and subsequent analysis for residual nitrite (supernatant) and cured pigment formation/nitrosylation (meat residue).
# Nitrosylation and residual nitrite analyses was performed under reduced light to avoid loss of pigmentation. L-arginine treated test tube pork sausage averaged 53.12 to 72.30 ppm of residual nitrite in the cooked meat pellet with percent nitrosylation ranging from 33 to 60 percent (Table 13). The brine was formulated to deliver 1500 ppm ingoing L-arginine at 25% absorption into the meat after two hours of immersion in the brine solution.
# [4] = pH after immersion, pre-rigor pork semimembranosus muscle (first study); format: physicochemical
smiles,measurement,setting,value
N=C(N)NCCC[C@H](N)C(=O)O [L-arginine],Nitrite,"NOS system; High (5000 ppm) L-arginine, 8 days post thermal processing, refrigerated vacuum packaged",48.12^a ppm
same,Nitrite,"NOS system; High (5000 ppm) L-arginine, one day after thermal processing",66.73^a ppm
same,Nitrite,"NOS system; Low (1000 ppm) L-arginine, 8 days post thermal processing, refrigerated vacuum packaged",37.78^a ppm
same,Nitrite,"NOS system; Low (1000 ppm) L-arginine, one day after thermal processing",79.16^a ppm
same,residual nitrite decrease,NOS system; during 8 days of refrigerated vacuum packaged storage,20-30 ppm
same,Injected Loin pH,eNOS system [1]; 10% injection of test brine (Table 8),7.15 and 7.12
same,Injected Loin pH,eNOS system [1]; 15% injection of test brine (Table 8),7.09 and 7.08
same,Injected Loin pH,eNOS system [1]; 20% injection of test brine (Table 8),7.03 and 7.14
same,Injected Loin pH,eNOS system [1]; 25% injection of test brine (Table 8),7.18 and 7.09
same,increase of muscle pH,eNOS system [1]; after injection of test brine with sodium tri-polyphosphate,~2.0 pH units
same,cured color formation after cooking,"eNOS system [1]; pork loin sections injected 10, 15, 20 or 25%, held two hours, cooked to 145° F.",no observable cured color formation
same,Brine pH,"eNOS system [1]; test brine of Table 8: L-arginine 5545.41 ppm, with sodium tri-polyphosphate, salt, sugar, sodium erythorbate",10.55
same,nitrosylation or cure color formation after thermal processing,"eNOS system [2]; injected loin sections and immersion cured tenderloins, cooked to 145° F.",no color change
same,End pH,"eNOS system [2]; loin, 10% injection of test brine (Table 10)",5.56
same,End pH,"eNOS system [2]; loin, 15% injection of test brine (Table 10)",5.60
same,End pH,"eNOS system [2]; loin, 20% injection of test brine (Table 10)",5.62
same,End pH,"eNOS system [2]; loin, 25% injection of test brine (Table 10)",6.51
same,End pH,"eNOS system [2]; tenderloin, immersion in test brine (Table 10) approximately 18 hr",6.10 and 6.15 and 6.13 and 6.12
same,Brine pH,"eNOS system [2]; test brine of Table 10: L-arginine 5574.90 ppm, no phosphate",10.79
same,pH,"L-arginine 3000 PPM, Day 1",5.91
same,pH,"L-arginine 3000 PPM, Day 7",5.86
same,pH,"L-arginine 3000 PPM, Day 14",6.02
same,pH,"L-arginine 3000 PPM, Day 28",6.06
same,pH,"L-arginine 4000 PPM, Day 1",5.92
same,pH,"L-arginine 4000 PPM, Day 7",5.90
same,pH,"L-arginine 4000 PPM, Day 14",5.96
same,pH,"L-arginine 4000 PPM, Day 28",6.00
same,pH,"L-arginine 5000 PPM, Day 1",5.87
same,pH,"L-arginine 5000 PPM, Day 7",5.92
same,pH,"L-arginine 5000 PPM, Day 14",5.94
same,pH,"L-arginine 5000 PPM, Day 28",6.01
same,Nitrite Pellet,[3]; 10% L-arginine brine (formulated for 1500 ppm L-arginine),72.31^a ppm
same,Nitrite Supernatant,[3]; 10% L-arginine brine,33.48^a ppm
same,Nitrite Pellet,[3]; 15% L-arginine brine (formulated for 1500 ppm L-arginine),53.12^ab ppm
same,Nitrite Supernatant,[3]; 15% L-arginine brine,36.50^a ppm
same,Nitrite Pellet,[3]; 20% L-arginine brine (formulated for 1500 ppm L-arginine),59.52^ab ppm
same,Nitrite Supernatant,[3]; 20% L-arginine brine,40.80^a ppm
same,Nitrite Pellet,[3]; 25% L-arginine brine (formulated for 1500 ppm L-arginine),59.63^ab ppm
same,Nitrite Supernatant,[3]; 25% L-arginine brine,35.34^a ppm
same,residual nitrite in the cooked meat pellet,[3]; range of averages over brine additions 10-25%,53.12 to 72.30 ppm
same,pH after 2 hours of sample immersion,"[4]; 2 mM L-arginine, cooked",5.88^a
same,pH after 2 hours of sample immersion,"[4]; 2 mM L-arginine, raw",5.84^a
same,pH after 2 hours of sample immersion,"[4]; 4 mM L-arginine, cooked",5.86^a
same,pH after 2 hours of sample immersion,"[4]; 4 mM L-arginine, raw",5.85^a
same,pH after 2 hours of sample immersion,"[4]; 8 mM L-arginine, cooked",5.87^a
same,pH after 2 hours of sample immersion,"[4]; 8 mM L-arginine, raw",5.83^a
same,pH after 2 hours of sample immersion,"[4]; 16 mM L-arginine, cooked",5.94^a
same,pH after 2 hours of sample immersion,"[4]; 16 mM L-arginine, raw",5.88^a
same,pH after 2 hours of sample immersion,"[4]; 32 mM L-arginine, cooked",6.05^a
same,pH after 2 hours of sample immersion,"[4]; 32 mM L-arginine, raw",6.01^a
same,sample pH after the immersion phase,"[4]; range over raw and cooked, 0-32 mM",5.83-6.05

# Reference: patent publication US20230029496A1, “AMINO ACID ALTERNATIVE CURING SYSTEM” (THE TEXAS A&M UNIVERSITY SYSTEM, priority 2019, published 2023)
